One series concerns mice (ICR strain). Kind of series: Maximal ElectroShock (MES) test. As to conditions: dosed i.p., Hour 1, elimination of hindlimb tonic extension, 50 mA-60 Hz for 0.2 second. The format is in vivo. On the procedure:
The therapeutic use of the compounds of formula I as anticonvulsants has been established by the “Maximal ElectroShock (MES)” test, which is a well-established pharmacological screening method for anticonvulsants against partial seizures, and the results are presented in Table I. The procedure employed in the MES test for anticonvulsants is as follows. The dosing solutions of the compounds to be tested were prepared in saline. The subjects, namely, mice (ICR strain), were dosed i.p. After the designated number of hours, maximal electroshock was induced in mice via corneal electrodes using IITC Life Science model 11A Shocker at 50 mA-60 Hz for 0.2 second. […] Median efficacy dose (ED50) levels were determined using three different dose levels with at least 6 mice in each group.
Background: In the maximal electroshock model the usual endpoint is tonic extension of the hind limbs.

On to `NC(=O)OCC(OC(N)=O)c1ccc(C(F)(F)F)s1` (stereo not drawn) [Example 14, (2-(5-trifluoromethyl-2-thienyl)-2-carbomoyloxyethyl)oxocarboxamide], for which the “MES ED50” value in the series on mice (ICR strain) is 12.6 mg/kg.

Turning to `CNC(=O)OCC(OC(=O)NC)c1ccc(Cl)s1` (stereo not drawn) [Example 7], in the series on mice (ICR strain), the “MES ED50” value turned out to be 37.4 mg/kg. On to `O=NC(=O)CC(O)c1cccs1` (stereo not drawn) [Example 21, (2-(2-thienyl)-2-hydroxyethyl)oxocarboxamide], for which the melting point lay in the range of 71 to 73 °C.

In general, melting point refers to the temperature of the solid-liquid transition.

These data come from patent US6841569B2, “Carbamates of 2-heterocyclic-1,2-ethanediols” (SK Corporation, priority 2001, dated 2005).
